One series concerns the target HDAC2 (Homo sapiens, UniProt Q92769). The experiment in a line: HDAC enzyme inhibitory activity, FRET method. It counts as biochemical.
The target in the next series is HDAC3 (Homo sapiens, UniProt O15379). The experiment in a line: HDAC enzyme inhibitory activity, FRET method. It counts as biochemical.
The nature of series [1]: Stability in liver microsomes. The series is classed as in vitro ADME. The settings on record: for half-life at 1 µM / T1/2: 1 µM compound, 37 °C, NADPH regeneration system; for Clint: 1 µM. The protocol: After the 1 µM compound was individually incubated at 37 °C for various durations with […] liver microsomes from humans, monkeys, beagles, rats, or mice in the presence of an NADPH regeneration system, LC-MS-MS was used to analyze the remaining amount of the compound, and T1/2 was calculated. Table 10. Evaluation results of stability of compounds of the present disclosure in human and mouse liver microsomes
On the technique in general: Liver microsomes are a subcellular fraction often used to study metabolism.

For another series, the target named is HDAC1 (Homo sapiens, UniProt Q13547). The experiment in a line: HDAC enzyme inhibitory activity, FRET method. The series is classed as biochemical.
A further series concerns Acetyl lysine. As to the kind of experiment: Intracellular acetyl lysine level by ELISA in HeLa cells. The series is classed as cell-based. The settings on record: 24 h of treatment. The procedure:
(§1) HeLa cells were seeded into a 96-well plate at 20000 cells/well. After overnight adherence culture, the serially diluted compound was added. After 24 h of treatment, intracellular levels of acetyl lysine and H3K 27 acetyl lysine were quantified by ELISA. Table 8. Effect of compound of the present disclosure on levels of acetyl lysine and H3K 27 acetyl lysine

In the next series the test system is 293T cell. The experiment in a line: Inhibition of cell proliferation (CTG, intracellular ATP). The series is classed as cell-based. The settings on record: Homo sapiens, HEK-293T, 72 h. The protocol: (§2) Jurkat or 293T cells were seeded into a 96-well plate at 3000 cells/well. After overnight adherence culture, the serially diluted compound in DMSO was added. After 72 h, the intracellular ATP level was determined by CTG. The IC50 for the inhibition of cell proliferation by the compounds was calculated compared to the DMSO group. Table 7. Inhibitory activity of compounds of the present disclosure against Jurkat/293T cell proliferation (IC50, µM)

The next series relates to Jurkat cell. The series is described as above. The series is classed as cell-based. The settings on record: 72 h. The procedure: as §2
The next series relates to H3K 27 Acetyl lysine. The experiment in a line: Intracellular H3K 27 acetyl lysine level by ELISA in HeLa cells. It counts as cell-based. The settings on record: 24 h of treatment. The procedure:
as §1
On the technique in general: ELISA stands for enzyme-linked immunosorbent assay.

Series [2] relates to Mouse colon cancer CT-26 cells. The settings on record: for Tumor response, number of mice (CR/PR/SD): 6 mice per group; for TGI(%): QD for 14 consecutive days, PO.
Description: Female BALB/c mice (aged 6 weeks, 18-22 g) were provided by Vital River Laboratory Animal Technology Co., Ltd. (China) and used one week after quarantine and acclimation. All animals were kept in a room at 23±2 °C with a relative humidity of 50±5%, artificial lighting was provided from 08:00 to 20:00 every day, and the air was exchanged 13-18 times per hour.
Mouse colon cancer CT-26 cells were cultured conventionally in 1640 medium containing 10% fetal bovine serum in an incubator at 37 °C with 5% CO2. After being subcultured, the cells were collected when they reached the desired amount. The BALB/c mice were subcutaneously injected with 2 × 10^5 CT-26 cells on the right side to form tumors. After the tumors grew to about 100 mm^3, the animals were randomly grouped for administration. Tumor volumes were measured with a caliper on day 3, day 7, day 10, day 14, day 17, and day 21 after the administration. The ability of the compounds to inhibit tumor growth was evaluated according to the tumor growth inhibition rate (TGI) = 1 - (tumor volume on day 28 in treatment group - tumor volume on day 1 in treatment group)/(tumor volume on day 28 in control group - tumor volume on day 1 in control group). The toxicity of the compounds was evaluated according to the body weight and state of the mice.
The next series concerns the target T1, HDAC10 (Homo sapiens, UniProt Q969S8).
T1 sequence (Q969S8 1-669): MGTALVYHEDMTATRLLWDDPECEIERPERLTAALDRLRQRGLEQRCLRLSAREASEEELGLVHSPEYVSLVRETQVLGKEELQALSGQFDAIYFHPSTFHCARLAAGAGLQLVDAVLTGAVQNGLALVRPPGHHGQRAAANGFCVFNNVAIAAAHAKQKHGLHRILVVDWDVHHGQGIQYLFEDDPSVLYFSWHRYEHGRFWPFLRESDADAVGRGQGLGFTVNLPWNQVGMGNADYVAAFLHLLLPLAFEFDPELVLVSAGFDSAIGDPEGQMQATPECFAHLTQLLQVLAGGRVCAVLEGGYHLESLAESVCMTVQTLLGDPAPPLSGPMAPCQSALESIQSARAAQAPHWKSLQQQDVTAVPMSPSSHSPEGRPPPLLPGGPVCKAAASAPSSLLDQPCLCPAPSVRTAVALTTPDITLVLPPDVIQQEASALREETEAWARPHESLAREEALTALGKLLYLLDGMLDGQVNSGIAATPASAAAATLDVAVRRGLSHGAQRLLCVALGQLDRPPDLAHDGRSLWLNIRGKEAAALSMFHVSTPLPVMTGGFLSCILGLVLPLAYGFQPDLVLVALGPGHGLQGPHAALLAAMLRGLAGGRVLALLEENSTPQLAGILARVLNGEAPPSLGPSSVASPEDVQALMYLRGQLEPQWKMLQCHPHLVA
The settings on record: read-out: IC50 HDAC subtype 10; Table 6.

For series [3], the system named is Mouse colon cancer MC38 cells. The settings on record: MC-38.
Description: Female C57BL6N mice (aged 6 weeks, 18-22 g) were provided by Vital River Laboratory Animal Technology Co., Ltd. (China) and used one week after quarantine and acclimation. All animals were kept in a room at 23±2 °C with a relative humidity of 50±5%, artificial lighting was provided from 08:00 to 20:00 every day, and the air was exchanged 13-18 times per hour.
Mouse colon cancer MC38 cells were cultured conventionally in 1640 medium containing 10% fetal bovine serum in an incubator at 37 °C with 5% CO2. After being subcultured, the cells were collected when they reached the desired amount. The C57BL6N mice were subcutaneously injected with 2 × 10^6 MC38 cells on the right side to form tumors. After the tumors grew to about 100 mm^3, the animals were randomly grouped for administration. Tumor volumes were measured with a caliper on day 3, day 7, day 10, day 14, day 17, and day 21 after the administration. The ability of the compounds to inhibit tumor growth was evaluated according to the tumor growth inhibition rate (TGI) = 1 - (tumor volume on day 28 in treatment group - tumor volume on day 1 in treatment group)/(tumor volume on day 28 in control group - tumor volume on day 1 in control group). The toxicity of the compounds was evaluated according to the body weight and state of the mice.
The groups were as follows: 1) solvent control group; 2) PD-1+Reg group; 3) Compound 1 group; 4) Reference Compound group; 5) compound 1 (10mg/kg) and PD-1+Reg Combination group; 6) compound 1 (30mg/kg) and PD-1+Reg Combination group; 7) compound 1 (90mg/kg) and PD-1+Reg Combination group; 8) Reference Compound (10mg/kg) and PD-1+Reg Combination group; 9) Reference Compound (30mg/kg) and PD-1+Reg Combination group; 10) Reference Compound (90mg/kg) and PD-1+Reg Combination group, with 6 mice per group.
Reg represents Regorafenib PD-1 represents an anti-PD-1 antibody; IV represents administration via intravenous injection; PO represents oral administration; QD represents once-daily administration; QW represents once-weekly administration; CR represents complete remission (complete disappearance of the tumor after the dosing cycle is completed); PR represents partial response (tumor volume reduction exceeding 30% relative to the initial volume upon completion of the administration cycle); SD represents stable disease (tumor volume reduction or growth not exceeding 30% relative to the initial volume upon completion of the administration cycle); Died represents mouse died before the dosing cycle is completed; Administration period* is once daily (QD) for 10 consecutive days, followed by a 16-day off-treatment period; the once-weekly (QW) regimen is administered only on Day 1 and Day 8.

Molecules are shown by their SMILES. Like-named read-outs stand apart in the source and are kept apart here. Where only a bound is given, the exact number is not on record here.

HDAC3, sequence (O15379 whole entry, species assumed): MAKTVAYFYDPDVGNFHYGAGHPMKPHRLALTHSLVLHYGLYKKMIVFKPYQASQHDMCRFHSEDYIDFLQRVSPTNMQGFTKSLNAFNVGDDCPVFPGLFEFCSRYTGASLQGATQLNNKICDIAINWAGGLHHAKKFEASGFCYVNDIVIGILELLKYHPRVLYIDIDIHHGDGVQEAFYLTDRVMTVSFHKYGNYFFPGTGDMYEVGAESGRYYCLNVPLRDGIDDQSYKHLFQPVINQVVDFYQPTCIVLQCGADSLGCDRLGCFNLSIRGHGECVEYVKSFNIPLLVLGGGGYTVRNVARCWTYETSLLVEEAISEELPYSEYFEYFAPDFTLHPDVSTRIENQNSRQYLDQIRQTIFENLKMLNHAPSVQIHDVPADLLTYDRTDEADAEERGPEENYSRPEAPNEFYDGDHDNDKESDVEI
HDAC3, sequence (Q9Y618 395-489 partner limits assumed, species assumed): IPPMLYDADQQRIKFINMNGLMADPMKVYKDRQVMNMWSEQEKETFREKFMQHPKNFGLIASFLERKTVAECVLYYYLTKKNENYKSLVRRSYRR
HDAC2, sequence (Q92769 whole entry, species assumed): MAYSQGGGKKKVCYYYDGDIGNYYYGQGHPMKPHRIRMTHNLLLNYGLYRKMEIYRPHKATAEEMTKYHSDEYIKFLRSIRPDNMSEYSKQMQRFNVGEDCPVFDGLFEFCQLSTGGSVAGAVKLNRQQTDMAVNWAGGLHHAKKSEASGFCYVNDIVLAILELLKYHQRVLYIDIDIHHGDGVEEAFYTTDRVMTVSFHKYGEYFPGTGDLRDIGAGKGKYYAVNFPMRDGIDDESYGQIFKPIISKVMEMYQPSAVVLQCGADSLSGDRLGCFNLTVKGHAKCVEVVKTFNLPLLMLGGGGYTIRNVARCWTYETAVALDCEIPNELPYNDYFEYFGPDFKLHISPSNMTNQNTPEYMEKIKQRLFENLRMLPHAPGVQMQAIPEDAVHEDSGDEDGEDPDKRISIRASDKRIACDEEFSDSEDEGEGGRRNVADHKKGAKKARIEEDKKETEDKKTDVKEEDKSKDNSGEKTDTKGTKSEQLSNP
HDAC1, sequence (Q13547 whole entry, species assumed): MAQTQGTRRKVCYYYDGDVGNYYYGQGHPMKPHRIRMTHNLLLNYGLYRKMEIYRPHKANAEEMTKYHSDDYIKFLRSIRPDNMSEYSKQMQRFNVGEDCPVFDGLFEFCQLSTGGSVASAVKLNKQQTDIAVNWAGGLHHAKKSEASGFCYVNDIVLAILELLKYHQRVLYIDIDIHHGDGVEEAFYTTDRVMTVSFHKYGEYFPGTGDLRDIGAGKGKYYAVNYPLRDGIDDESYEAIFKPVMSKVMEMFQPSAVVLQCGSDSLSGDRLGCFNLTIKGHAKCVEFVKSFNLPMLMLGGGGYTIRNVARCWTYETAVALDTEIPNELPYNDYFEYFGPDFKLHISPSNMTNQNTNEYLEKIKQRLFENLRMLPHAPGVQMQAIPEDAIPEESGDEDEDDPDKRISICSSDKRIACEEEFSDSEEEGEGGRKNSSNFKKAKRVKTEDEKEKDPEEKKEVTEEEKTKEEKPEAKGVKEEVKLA
Description for HDAC10: (§3) The compounds of the present disclosure were assayed for enzyme inhibitory activity against various subtypes of HDAC enzymes by the FRET method. The various subtypes of HDAC enzymes were obtained either through purification or direct purchase of assay kits.
(§4) The specific method was as follows: The enzyme was added to a 384-well plate, and a reaction buffer was added to the control well. Serially diluted DMSO sample solutions were added to the reaction wells, and the plate was incubated at room temperature for 15 min. Then a chromogenic agent was added to stop the reaction, and fluorescence was generated. The fluorescence intensity was measured using an EnVision multi-label microplate reader (excitation: 355 nm, emission: 460 nm). The endpoint value was read after the color development reached stability. The inhibition IC50 of the compounds was calculated using GraphPad Prism4 software relative to DMSO.
Description for HDAC2: as §3, §4
Description for HDAC3: as §3, §4

As usually defined, the IC50 is the concentration that inhibits the measured activity by half. By CLint scaled is commonly meant a measure of how fast metabolising enzymes remove a compound, apart from limits set by blood flow. A lower CLint scaled goes with greater metabolic stability. As a reminder, the half-life is the time needed for the level to fall by half in the phase considered. In the case of `CS(C)(=O)=Nc1ccc(C(=O)Nc2cc(-c3ccc(Cl)cc3)ccc2N)cc1` [Compound 3], the IC50 on HDAC2 (Table 4, read-out: IC50 HDAC2) is below 500 nM; on HDAC2 (Table 5, read-out: IC50 HDAC2), 30 to 300 nM; at HDAC3 (Table 4, read-out: IC50 HDAC3), above 5000 nM; on HDAC3 (Table 5, read-out: IC50 HDAC3), above 3000 nM; on HDAC1 (Table 4, read-out: IC50 HDAC1), below 500 nM; on HDAC1 (Table 5, read-out: IC50 HDAC1), below 30 nM. Also, the CLint scaled at 1 µM in series [1] (Human liver microsomes) was 1.85 mL/min/kg; in [1] (Mouse liver microsomes), 17.8 mL/min/kg. The Clliver in series [1] (Human liver microsomes) is recorded as 1.70 mL/min/kg; in [1] (Mouse liver microsomes), 14.87 mL/min/kg. Besides, the half-life at 1 µM came out at 15.7 h in series [1] (Human liver microsomes) and 5.11 h in [1] (Mouse liver microsomes).

As to `CS(C)(=O)=Nc1ccc(C(=O)Nc2cc(-c3ccc(F)s3)ccc2N)cc1` [Compound 33], the IC50 on HDAC2 (Table 5, read-out: IC50 HDAC2) was 30 to 300 nM; on HDAC3 (Table 5, read-out: IC50 HDAC3), above 3000 nM; on HDAC1 (Table 5, read-out: IC50 HDAC1), below 30 nM. The figures for the CLint scaled at 1 µM in series [1] (Human liver microsomes) and in series [1] (Mouse liver microsomes) were 8.26 mL/min/kg and 0.45 mL/min/kg, respectively. In addition, the Clliver in [1] (Human liver microsomes) is given as 5.91 mL/min/kg; in series [1] (Mouse liver microsomes), 0.45 mL/min/kg. In addition, the half-life at 1 µM turned out to be 3.51 h in series [1] (Human liver microsomes) and 201 h in [1] (Mouse liver microsomes).

For `Nc1ccc(-c2ccc(F)cc2)cc1NC(=O)c1ccc(N=S2(=O)CCCC2)cc1` [Compound 57], the IC50 on HDAC2 (Table 5, read-out: IC50 HDAC2) is 30 to 300 nM; at HDAC3 (Table 5, read-out: IC50 HDAC3), above 3000 nM; on HDAC1 (Table 5, read-out: IC50 HDAC1), below 30 nM. For the same molecule, the CLint scaled at 1 µM in series [1] (Human liver microsomes) stood at 7.51 mL/min/kg; in [1] (Mouse liver microsomes), 33 mL/min/kg. In addition, the values for the Clliver in series [1] (Human liver microsomes) and in series [1] (Mouse liver microsomes) were 5.51 mL/min/kg and 24.16 mL/min/kg, respectively. For the same molecule, the half-life at 1 µM in series [1] (Human liver microsomes) was 3.86 h; in [1] (Mouse liver microsomes), 2.75 h.

For the molecule `CN1CCS(=O)(=Nc2ccc(C(=O)Nc3cc(-c4ccc(F)cc4)ccc3N)cc2)CC1` [Compound 67], the IC50 is below 500 nM at HDAC2 (Table 4, read-out: IC50 HDAC2); 30 to 300 nM on HDAC2 (Table 5, read-out: IC50 HDAC2); above 5000 nM at HDAC3 (Table 4, read-out: IC50 HDAC3); above 3000 nM on HDAC3 (Table 5, read-out: IC50 HDAC3); below 500 nM at HDAC1 (Table 4, read-out: IC50 HDAC1); below 30 nM on HDAC1 (Table 5, read-out: IC50 HDAC1). In addition, the IC50 in the series with 293T cell was above 10000 nM; with Jurkat cell (Homo sapiens, Jurkat), 300 nM. Besides, in the series with Acetyl lysine, the “Acetyl lysine Maximum (%)” value is recorded as 570%. Further, in the series on Acetyl lysine, the “Acetyl lysine Minimum effective concentration” value is 16 nM. Moreover, in the series on H3K 27 Acetyl lysine, the “H3K 27 Acetyl lysine Maximum (%)” value is recorded as 300%. In the series with H3K 27 Acetyl lysine, the “H3K 27 Acetyl lysine Minimum effective concentration” value worked out at 16 nM.

With `Nc1ccc(-c2ccc(F)s2)cc1NC(=O)c1ccc(N=S2(=O)CCC2)cc1` [Compound 92], the IC50 at HDAC2 (Table 4, read-out: IC50 HDAC2) was below 500 nM; at HDAC3 (Table 4, read-out: IC50 HDAC3) it was above 5000 nM; at HDAC1 (Table 4, read-out: IC50 HDAC1) it was below 500 nM.

As for `Nc1ccc(-c2ccc(F)s2)cc1NC(=O)c1ccc(N=S2(=O)CC3(CCC3)C2)cc1` [Compound 93], the IC50 at HDAC2 (Table 4, read-out: IC50 HDAC2) was below 500 nM; at HDAC3 (Table 4, read-out: IC50 HDAC3), above 5000 nM; on HDAC1 (Table 4, read-out: IC50 HDAC1) it was below 500 nM.

As to `Nc1ccc(-c2ccc(F)s2)cc1NC(=O)c1ccc(N=S2(=O)CC3(CNC3)C2)cc1` [Compound 94], the IC50 is below 500 nM at HDAC2 (Table 4, read-out: IC50 HDAC2); above 5000 nM at HDAC3 (Table 4, read-out: IC50 HDAC3); below 500 nM on HDAC1 (Table 4, read-out: IC50 HDAC1).

With `CN1CC2(C1)CS(=O)(=Nc1ccc(C(=O)Nc3cc(-c4ccc(F)s4)ccc3N)cc1)C2` [Compound 95], the IC50 is below 500 nM at HDAC2 (Table 4, read-out: IC50 HDAC2); above 5000 nM at HDAC3 (Table 4, read-out: IC50 HDAC3); below 500 nM at HDAC1 (Table 4, read-out: IC50 HDAC1).

For `Nc1ccc(-c2ccc(F)s2)cc1NC(=O)c1ccc(N=S2(=O)CCCC2)cc1` [Compound 96], the IC50 was below 500 nM on HDAC2 (Table 4, read-out: IC50 HDAC2); above 5000 nM at HDAC3 (Table 4, read-out: IC50 HDAC3); below 500 nM at HDAC1 (Table 4, read-out: IC50 HDAC1).

Take `CS(=O)(=O)Nc1ccc(C(=O)Nc2cc(-c3ccc(F)cc3)ccc2N)cc1` [Reference Compound, N-(4-amino-4'-fluoro-[1,1'-biphenyl]-3-yl)-4-(S-methylsulfonamido) benzamide, reference compound]: the IC50 at HDAC2 (Table 5, read-out: IC50 HDAC2) is 30 to 300 nM; at HDAC2 (Table 6, read-out: IC50 HDAC subtype 2), 178 nM; on HDAC3 (Table 5, read-out: IC50 HDAC3), above 3000 nM; on HDAC3 (Table 6, read-out: IC50 HDAC subtype 3), 8280 nM; at HDAC1 (Table 5, read-out: IC50 HDAC1) it was 30 to 300 nM; at HDAC1 (Table 6, read-out: IC50 HDAC subtype 1) it was 44.4 nM. In addition, the IC50 on HDAC10 was 83.2 nM; in the series with Jurkat cell, 1940 nM. Besides, the results for the “Change in body weight(%)” value in series [2] (monotherapy 30 mg/kg QD PO), in series [2] (monotherapy 90 mg/kg QD PO) and in series [3] (monotherapy 90 mg/kg QD PO) were 4.73±1.54%, -3.53±2.89% and 17.04 ± 1.54%, respectively. In addition, the “Tumor response, number of mice (CR/PR/SD)” value in series [2] (monotherapy 30 mg/kg QD PO) came to 1PR; in series [2] (monotherapy 90 mg/kg QD PO), 1PR+2SD; in series [3] (monotherapy 90 mg/kg QD PO, CR complete remission, PR partial response, SD stable disease, 6 mice per group), 1PR. Besides, the “TGI(%)” value in series [2] (monotherapy 30 mg/kg) worked out at 56.10%; in [2] (monotherapy 90 mg/kg), 95.93%; in series [3] (monotherapy 90 mg/kg, QD for 10 consecutive days, PO) it was 73.90%. Moreover, in the series on Acetyl lysine, the “Acetyl lysine Maximum (%)” value was 350%. In addition, in the series with Acetyl lysine, the “Acetyl lysine Minimum effective concentration” value stood at 80 nM. For the same molecule, the Clliver amounted to 11.68 mL/min/kg in series [1] (Human liver microsomes) and 9.20 mL/min/kg in series [1] (Mouse liver microsomes). In addition, the T1/2 in [1] (Human liver microsomes) came to 1.082 h; in series [1] (Mouse liver microsomes), 8.874 h. The Clint in series [1] (Human liver microsomes) is 26.78 mL/min/kg; in [1] (Mouse liver microsomes) it was 10.25 mL/min/kg. Also, the “H3K 27 Acetyl lysine Maximum (%)” value in the series on H3K 27 Acetyl lysine turned out to be 190%. Moreover, in the series with H3K 27 Acetyl lysine, the “H3K 27 Acetyl lysine Minimum effective concentration” value was found to be 80 nM.

Values taken from EP4714938A1, “HDAC1/2 SELECTIVE INHIBITOR AND USE THEREOF” (Wigen Biomedicine Technology (Shanghai) Co., Ltd., priority 2023, dated 2024).
